Results: patent US4189433A, “4-Hydroxy-1,2-benzisothiazoles and their manufacture” (BASF Aktiengesellschaft, priority 1977, dated 1980)

Legend:
[1] = Stability to light and to air; format: physicochemical; settings: compared to 7-amino-4-hydroxy-1,2-benzisothiazole
[2] = biological target: T1, cardiac β1-receptors (Rattus norvegicus, UniProt P18090); assay: β1-sympatholytic action: inhibition of Isoproterenol tachycardia in pithed rats; format: in vivo, rat (Sprague-Dawley; settings: Propranolol = 1.00, intravenous
T1 construct: in pithed rats (Sprague-Dawley, Mus rattus; weight 230-280 g); from tissue; host or cells: heart in situ of pithed Sprague-Dawley rats (in vivo)
T1 sequence (P18090 whole entry): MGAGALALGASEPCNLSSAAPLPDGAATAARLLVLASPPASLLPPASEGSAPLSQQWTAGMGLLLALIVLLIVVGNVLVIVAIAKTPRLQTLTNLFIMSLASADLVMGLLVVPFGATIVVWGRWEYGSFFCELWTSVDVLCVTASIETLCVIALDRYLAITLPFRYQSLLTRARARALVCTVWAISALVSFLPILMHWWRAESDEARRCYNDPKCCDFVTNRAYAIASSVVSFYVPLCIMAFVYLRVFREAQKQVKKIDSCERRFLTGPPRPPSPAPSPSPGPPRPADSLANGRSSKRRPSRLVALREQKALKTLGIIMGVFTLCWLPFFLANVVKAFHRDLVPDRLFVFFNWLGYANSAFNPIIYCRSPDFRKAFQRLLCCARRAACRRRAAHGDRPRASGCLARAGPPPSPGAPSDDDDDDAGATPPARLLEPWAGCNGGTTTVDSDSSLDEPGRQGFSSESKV
From the text: (§1) The following are examples of compounds of the general formula III and/or of their acid addition salts with a physiologically safe acid: 4-(2-hydroxy-3-isopropylamino-propoxy)-1,2-benzisothiazole (III), 4-(2-hydroxy-3-tert.-butylaminopropoxy)-1,2-benzisothiazole (IV), 4-[2-hydroxy-3-(3-methylpentyl-3-amino)-propoxy]-1,2-benzisothiazole (VII), 4-[2-hydroxy-3-(2-methyl-butyl-2-amino)-propoxy]-1,2-benzisothiazole (VI), 4-[2-hydroxy-3-(2-methyl-3-but-2-ynylamino)-propoxy]-1,2-benzisothiazole (VIII), 4-(2-hydroxy-3-sec.-butylaminopropoxy-1,2-benzisothiazole (V), 4-[2-hydroxy-3-(1-methoxy-propyl-2-amino)-propoxy]-1,2-benzisothiazole (IX) and 4-[2-hydroxy-3-(pentyl-2-amino)-propoxy]-1,2-benzisothiazole (X).

[3] = in vivo; settings: mouse
Method: (§2) The acute toxicity was determined on groups of 10 or 20 female Swiss mice weighing 20-26 g, the compounds being administered intraperitoneally.

[4] = system: female Swiss mice; assay: in vivo; settings: mouse
Method: as §2

[5] = biological target: T2, β2-receptors on the blood vessels (Rattus norvegicus, UniProt P10608); assay: β2-sympatholytic action: inhibition of Isoproterenol blood pressure reduction in rats under urethane narcosis; format: in vivo; settings: for R.A. (relative activity), β2-sympatholytic action: Propranolol = 1.00; for R.A. (relative activity), β2-sympatholytic action / Q (footnote 6; numerically ED 50 β2 / ED 50 β1): intravenous; for Q (footnote 6; numerically ED 50 β2 / ED 50 β1): cardioselectivity quotient, rats
T2 construct: was tested on rats, weighing 230-280 g, under urethane narcosis; from tissue; host or cells: blood vessels in situ of urethane-anaesthetised rats (in vivo)
T2 sequence (P10608 whole entry): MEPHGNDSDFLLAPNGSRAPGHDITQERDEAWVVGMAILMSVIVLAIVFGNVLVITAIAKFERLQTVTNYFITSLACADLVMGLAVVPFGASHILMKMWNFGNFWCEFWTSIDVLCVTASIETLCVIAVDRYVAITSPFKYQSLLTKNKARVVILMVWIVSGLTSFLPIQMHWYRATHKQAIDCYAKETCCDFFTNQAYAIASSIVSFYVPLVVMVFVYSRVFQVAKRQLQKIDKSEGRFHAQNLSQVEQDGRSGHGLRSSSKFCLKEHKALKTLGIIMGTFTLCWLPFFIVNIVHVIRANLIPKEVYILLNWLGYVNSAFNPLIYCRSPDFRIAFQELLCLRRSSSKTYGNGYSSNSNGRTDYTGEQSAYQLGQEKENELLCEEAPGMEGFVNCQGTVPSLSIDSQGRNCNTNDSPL
From the text: as §1

| SMILES | stability to light and to air [1] | R.A. (relative activity), β1-sympatholytic action [2] | selectivity ratio [3] | Therapeutic range, relative [4] | R.A. (relative activity), β2-sympatholytic action ([5]; rats under urethane narcosis) | Q (footnote 6; numerically ED 50 β2 / ED 50 β1) [5] | reduction of the mean pressure of the carotid artery, average ([5]; Isoproterenol 0.215 μg/kg i.v., rats under urethane narcosis) [%] |
| --- | --- | --- | --- | --- | --- | --- | --- |
| CC(=O)Nc1ccc(OC(C)=O)c2cnsc12 [7-acetamino-4-acetoxy-1,2-benzisothiazole] | increased stability to light and to air | – | – | – | – | – | – |
| CC(C)NCC(O)COc1cccc2sncc12 (stereo not drawn) [Example III, 4-(2-hydroxy-3-isopropylamino-propoxy)-1,2-benzisothiazole] | – | 6.47 | 32700 | 3.72 | 2.71 | 2.21 | – |
| CC(C)(C)NCC(O)COc1cccc2sncc12 (stereo not drawn) [IV, 4-(2-hydroxy-3-tert.-butylaminopropoxy)-1,2-benzisothiazole] | – | 7.55 | 94500 | 10.76 | 2.84 | 2.47 | – |
| COCC(C)NCC(O)COc1cccc2sncc12 (stereo not drawn) [IX, 4-[2-hydroxy-3-(1-methoxy-propyl-2-amino)-propoxy]-1,2-benzisothiazole] | – | 2.48 | – | 3.11 | 0.26 | 8.90 | – |
| CC(C)NCC(O)c1ccc(O)c(O)c1 (stereo not drawn) [Isoproterenol, reference compound] | – | – | – | – | – | – | 30 |
| CCC(C)NCC(O)COc1cccc2sncc12 (stereo not drawn) [V, 4-(2-Hydroxy-3-sec.-butylamino-propoxy)-1,2-benzisothiazole] | – | 8.04 | – | 7.18 | 1.08 | 6.93 | – |
| CCC(C)(C)NCC(O)COc1cccc2sncc12 (stereo not drawn) [VI, 4-[2-hydroxy-3-(2-methyl-butyl-2-amino)-propoxy]-1,2-benzisothiazole] | – | 6.68 | – | 8.92 | 1.38 | 4.48 | – |
| CCC(C)(CC)NCC(O)COc1cccc2sncc12 (stereo not drawn) [VII, 4-[2-hydroxy-3-(3-methylpentyl-3-amino)-propoxy]-1,2-benzisothiazole] | – | 3.75 | – | 4.44 | 0.94 | 3.69 | – |
| C#CC(C)(C)NCC(O)COc1cccc2sncc12 (stereo not drawn) [VIII, 4-[2-hydroxy-3-(2-methyl-3-but-2-ynylamino)-propoxy]-1,2-benzisothiazole] | – | 5.35 | – | 9.11 | 1.98 | 2.50 | – |
| CCCC(C)NCC(O)COc1cccc2sncc12 (stereo not drawn) [X, 4-[2-hydroxy-3-(pentyl-2-amino)-propoxy]-1,2-benzisothiazole] | – | 4.88 | – | 2.72 | 0.42 | 10.70 | – |
